From paper PMC11568265, “Exploring peptide dendrimers for intestinal lymphatic targeting: formulation and evaluation of peptide dendrimer conjugated liposomes for enhancing the oral bioavailability of Asenapine maleate” (Scientific Reports, 2024)
Structures can show the parent of a compound that is named as a salt. Marks after values point to notes of the source that are not given here.

What was measured:
[1] = Oral pharmacokinetic study in rats; type: in vivo, Sprague–Dawley (SD) rats; details: SD rats, 5 mg/kg ASPM orally, n = 6
Description: (§1) Preclinical ex vivo and in vivo studies were conducted on male Sprague–Dawley (SD) rats (200–250 g). The SD rats were bred at the Central Animal Research Facility, Manipal Academy of Higher Education, Manipal, India. The SD rats were exposed to a light–dark cycle (12 h each) and had free access to food and water. The rats used in the study were housed in cages at 25 ± 2 °C. All the experimental procedures and animal handling were carried out following the CCSEA (Committee for Control and Supervision of Experiments on Animals, Ministry of Fisheries, Animal Husbandry and Dairying, Government of India) guidelines, and in accordance with ARRIVE guidelines as well. All the animal experimental protocols were approved by the Institutional Animal Ethical Committee, Kasturba Medical College, MAHE, Manipal (Approval No: IAEC/KMC/49/2020). An attempt was made to use the minimum number of rats in an ethically responsible manner.
Overnight-fasted SD rats were divided into 3 groups (n = 6). Group I, ASPM solution; Group II, LP-ASPM; Group III, LP-PD-2. All the groups received ASPM at a dose of 5 mg/kg body weight orally. Blood was drawn from the retro-orbital sinus at different time points between 0 and 48 h in tubes containing disodium EDTA. Blood was centrifuged at 5000 rpm for 10 min, and the clear plasma from the supernatant layer was collected and stored at -80 °C until analysis. The amount of ASPM in the samples was analysed by RP-HPLC. The detailed bioanalytical method development for the quantification of ASPM in rat plasma is given in Supplementary information; Section S3; Table S4; Figure S7. Pharmacokinetic parameters were calculated using PK Solutions 2.0™ (Summit Research Services, Montrose, Colorado).

[2] = cited from earlier work
[3] = tested on: L-DOPA-carbidopa-induced hyper locomotor activity; assay: Psychostimulant-induced hyperactivity model, locomotor activity (LMA) test; type: in vivo, Sprague–Dawley (SD) rats; details: L-DOPA-carbidopa-treated rats, ASPM dose 5 mg/kg p.o.
Description: as §1
The pharmacodynamic study was performed using an induced locomotor activity (LMA) test with a psychostimulant-induced hyperactivity model. The ability of the optimized formulation to reverse hyperactivity in rats was studied. […] A digital Actophotometer (Ikon Instruments, New Delhi, India) was used to assess LMA at 5 min intervals at 1, 2 and 3 h. The LMA was assessed after 1 h of L-DOPA-carbidopa administration in group II. ASPM was administered after 30 min of L-DOPA-carbidopa administration, and LMA was noted after 30 min of ASPM administration in groups III, IV and V.

[4] = design: method as in PMID 30669881; details: pure ASPM dispersion, intestinal fluid (phosphate buffer pH 6.8), within 180 min; cited from earlier work
[5] = Ex vivo drug permeation, everted ileum sac model; type: in vitro ADME, Sprague–Dawley (SD) rats; details: male, Sprague-Dawley, pH 7.4, everted rat ileum sac
Description: as §1
The absorption of the drug through the ileum portion of the small intestine was determined by an ex vivo drug permeation study using an everted ileum sac model. Overnight-fasted SD rats were sacrificed humanely, and the small intestine was isolated (≈ 10 cm). The isolated ileum segment was carefully everted and pushed completely over a capillary tube. The ileum was then tied between the cannulated parts of the U-shaped glass tube, which was used as a perfusion apparatus. The perfusion apparatus was then placed in a beaker containing 450 mL of Ringer’s solution (pH 7.4). The medium was stirred using magnetic beads at 100 rpm and 37 °C. Plain ASPM solution/liposomal dispersion was added to the beaker. The samples were withdrawn from the cannulated arm of the U tube at predetermined time points of 1, 2 and 3 h, and the same volume of the withdrawn sample was replaced by the addition of fresh Ringer’s solution. The amount of drug absorbed was calculated by analysing the samples using HPLC[22].

Raji B cells = tested on: Raji B cells; design: method as in PMID 30874464, PMID 32228915, doi:10.1016/j.jddst.2022.103275; details: highest concentration of ASPM tested; cited from earlier work
Caco-2 cells = tested on: Caco-2 cells; design: method as in PMID 30874464, PMID 32228915, doi:10.1016/j.jddst.2022.103275; details: highest concentration of ASPM tested; cited from earlier work
[6] = male, Sprague-Dawley, rat, plasma, po

t1/2 ([1]; 5 mg/kg): 25.52 ± 2.15 h
half-life ([1]; male, Sprague-Dawley, rat, plasma, po, 5 mg/kg): 25.2 ± 2.15 h
AUC(0-inf) [1, 6]: 3640 ± 347 ng·h/mL
AUC(0-t) [1, 6]: 2660 ± 221 ng·h/mL
Cmax [1, 6]: 131 ± 7.01 ng/mL
MRT [1, 6]: 36 ± 3.16 h
Tmax [1, 6]: 1 h
k el [1, 6]: 7.53e-06 s⁻¹
Papp at 1 h ([5]; 1 h): 291 ± 26 ×10⁻⁶ cm/s
Papp at 2 h ([5]; 2 h): 231 ± 31 ×10⁻⁶ cm/s
Papp at 3 h ([5]; 3 h): 206 ± 30 ×10⁻⁶ cm/s
Structure (SMILES): CN1CC2c3ccccc3Oc3ccc(Cl)cc3C2C1 (stereo not shown) [ASPM, Asenapine maleate]
bioavailability ([2]; marketed fast-dissolving sublingual tablet, ref 7 (printed at next sentence)): 35%
oral bioavailability ([2]; oral administration): < 2%
Locomotor counts ([3]; 1 h): 121 ± 17*^$
Locomotor counts ([3]; 2 h): 118 ± 18*^$
Locomotor counts ([3]; 3 h): 110 ± 15*^$
drug release [4]: more than 90%
cells remaining viable (Raji B cells): more than 80%
cells remaining viable (Caco-2 cells): more than 80%
